Values quoted from earlier work in paper PMC2810551 (Chemistry & biology, 2009).

Tested on: CD4+ T cells expressing the MBP Ac1-11 specific Vα2.3/Vβ8.2 TCR
Conditions: immunization with MBP Ac1-11; B10.PL mice; ref [6]

Ac-ASQKRPSQRSK [MBP Ac1-11]
activation and expansion of specific CD4+ T cells: results in activation and expansion of CD4+ T cells expressing the MBP Ac1-11 specific Vα2.3/Vβ8.2 TCR
